Measured values as given in patent US8354416B2 (Glaxo Group Limited, priority 2005, dated 2013).
Where a name gives a salt, the structure may show the parent alone.

Tested on: influx of neutrophils to the lung in LPS-challenged rats
Assay: Rat LPS neutrophilia model
Format: in vivo
Settings: intratracheal, LPS aerosol 100 ug/ml, in at least one of the range of conditions tested, significance p<0.05
Protocol: Rat LPS Neutrophilia Model
The effect of compounds on the influx of neutrophils to the lung in LPS-challenged rats is evaluated as follows. The test compound is suspended in one of the following solutions: 0.5% tween 80/PBS, 0.5% tween 80/saline, 10% EtOH/saline (with pH adjusted to 2.0, or 8.0 with HCl, or unadjusted), Saline (pH 2.0, 6.5 or 8.0, 0.5% Tragacanth, 1% DMSO/20% Encapsin/Saline, or acidified 5% Tragacanth. The suspension process may be aided by the use of a glass homogenizer. For intratracheal administration, the animals are anesthetized with inhaled isoflurane and placed in a supine position, the trachea is intubated with a steel gavage needle (1.5 inch, 22 gauge, small ball) or a Penn-Century Microsprayer Aerosolizer (model IA-1B) and 200 ul of dosing solution is delivered. The animals are visually monitored during the recovery process, which typically occurs within two minutes. It is noted that the test compounds may be alternatively administered via the microsprayer in a dry powder blend with a suitable excipient, such as lactose.
Rats treated with compound or vehicle (15 min-24 hours pretreatment) are exposed to an LPS aerosol (100 ug/ml) for 15 min. Four hours later the rats are euthanized with pentobarbital (100 mg/kg, i.p.) and the airways are lavaged with 5 washes of 5 ml of phosphate buffered saline. The harvested cells are stained (Diffquick) and counted to determine total and differential cell data. […] Inhibition of neutrophil levels relative to no compound controls is calculated based on the differential counts.
The data is obtained as % inhibition using a particular concentration and pretreat time.

Row | Structure (SMILES) | inhibition of neutrophilia (neutrophil levels in airway lavage relative to no compound controls)
1 | CCN(CC)CCCNc1nc(-c2cc(C(=O)Nc3ccccc3)ccc2C)c2ccc(=O)n(-c3c(F)cccc3F)c2n1 [Example 147, 3-[2-{[3-(diethylamino)propyl]amino}-8-(2,6-difluorophenyl)-7-oxo-7,8-dihydropyrido[2,3-d]pyrimidin-4-yl]-4-methyl-N-phenylbenzamide] | statistically nonsignificant inhibition of neutrophilia
2 | CCN(CC)CCCNc1nc(-c2cc(C(=O)Nc3ccc(F)cc3)ccc2C)c2ccc(=O)n(-c3c(F)cccc3F)c2n1 [Example 160, 3-[2-{[3-(diethylamino)propyl]amino}-8-(2,6-difluorophenyl)-7-oxo-7,8-dihydropyrido[2,3-d]pyrimidin-4-yl]-N-(4-fluorophenyl)-4-methylbenzamide] | statistically significant inhibition of neutrophilia
3 | Cc1ccc(C(=O)Nc2nccs2)cc1-c1nc(NCCN(C)C)nc2c1ccc(=O)n2-c1c(F)cccc1F [Example 109, 3-(8-(2,6-difluorophenyl)-2-{[2-(dimethylamino)ethyl]amino}-7-oxo-7,8-dihydropyrido[2,3-d]pyrimidin-4-yl)-4-methyl-N-1,3-thiazol-2-ylbenzamide] | statistically significant inhibition of neutrophilia
4 | Cc1ccc(C(=O)NC2CC2)cc1-c1nc(N2CCC(N)CC2)nc2c1ccc(=O)n2-c1c(F)cccc1F [Example 22, 3-[2-(4-amino-1-piperidinyl)-8-(2,6-difluorophenyl)-7-oxo-7,8-dihydropyrido[2,3-d]pyrimidin-4-yl]-N-cyclopropyl-4-methylbenzamide] | statistically significant inhibition of neutrophilia
5 | CCN(CC)CCCNc1nc(-c2cc(C(=O)N[C@@H](C)c3ccccc3)ccc2C)c2ccc(=O)n(-c3c(F)cccc3F)c2n1 [Example 149, 3-[2-{[3-(diethylamino)propyl]amino}-8-(2,6-difluorophenyl)-7-oxo-7,8-dihydropyrido[2,3-d]pyrimidin-4-yl]-4-methyl-N-[(1S)-1-phenylethyl]benzamide] | inactive
6 | Cc1ccc(C(=O)Nc2ccc(F)cc2)cc1-c1nc(N(C)CCCN(C)C)nc2c1ccc(=O)n2-c1c(F)cccc1F [Example 115, 3-{8-(2,6-difluorophenyl)-2-[[3-(dimethylamino)propyl](methyl)amino]-7-oxo-7,8-dihydropyrido[2,3-d]pyrimidin-4-yl}-N-(4-fluorophenyl)-4-methylbenzamide] | statistically nonsignificant inhibition of neutrophilia
7 | Cc1ccc(C(=O)Nc2ccc(F)cc2)cc1-c1nc(NCCN(C)C(=O)OC(C)(C)C)nc2c1ccc(=O)n2-c1c(F)cccc1F [Example 95, 1,1-dimethylethyl (2-{[8-(2,6-difluorophenyl)-4-(5-{[(4-fluorophenyl)amino]carbonyl}-2-methylphenyl)-7-oxo-7,8-dihydropyrido[2,3-d]pyrimidin-2-yl]amino}ethyl)methylcarbamate] | statistically nonsignificant inhibition of neutrophilia
8 | CCN(CC)CCCNc1nc(-c2cc(C(=O)NCC3CCCCC3)ccc2C)c2ccc(=O)n(-c3c(F)cccc3F)c2n1 [Example 135, N-(cyclohexylmethyl)-3-[2-{[3-(diethylamino)propyl]amino}-8-(2,6-difluorophenyl)-7-oxo-7,8-dihydropyrido[2,3-d]pyrimidin-4-yl]-4-methylbenzamidetrifluoroacetate] | inactive
9 | CCCNC(=O)c1cc(F)c(C)c(-c2nc(NCCCN(CC)CC)nc3c2ccc(=O)n3-c2c(F)cccc2F)c1 [Example 181, 3-[2-{[3-(diethylamino)propyl]amino}-8-(2,6-difluorophenyl)-7-oxo-7,8-dihydropyrido[2,3-d]pyrimidin-4-yl]-5-fluoro-4-methyl-N-propylbenzamide] | statistically nonsignificant inhibition of neutrophilia
10 | CNCCNc1nc(-c2cc(C(=O)NCCc3ccccc3)ccc2C)c2ccc(=O)n(-c3c(F)cccc3F)c2n1 [Example 29, 3-(8-(2,6-difluorophenyl)-2-{[2-(methylamino)ethyl]amino}-7-oxo-7,8-dihydropyrido[2,3-d]pyrimidin-4-yl)-4-methyl-N-(2-phenylethyl)benzamide] | statistically significant inhibition of neutrophilia
11 | CCCNCCNc1nc(-c2cc(C(=O)NC3CC3)ccc2C)c2ccc(=O)n(-c3c(F)cccc3F)c2n1 [Example 24, N-cyclopropyl-3-(8-(2,6-difluorophenyl)-7-oxo-2-{[2-(propylamino)ethyl]amino}-7,8-dihydropyrido[2,3-d]pyrimidin-4-yl)-4-methylbenzamide] | statistically nonsignificant inhibition of neutrophilia
12 | CCN(CC)CCCNc1nc(-c2cc(C(=O)NCCOC)ccc2C)c2ccc(=O)n(-c3c(F)cccc3F)c2n1 [Example 134, 3-[2-{[3-(diethylamino)propyl]amino}-8-(2,6-difluorophenyl)-7-oxo-7,8-dihydropyrido[2,3-d]pyrimidin-4-yl]-4-methyl-N-[2-(methyloxy)ethyl]benzamidetrifluoroacetate] | statistically nonsignificant inhibition of neutrophilia
13 | Cc1ccc(C(=O)NC2CC2)cc1-c1nc(N2CCC(N3CCC(C)CC3)CC2)nc2c1ccc(=O)n2-c1c(F)cccc1F [Example 178, N-cyclopropyl-3-[8-(2,6-difluorophenyl)-2-(4-methyl-1,4′-bipiperidin-1′-yl)-7-oxo-7,8-dihydropyrido[2,3-d]pyrimidin-4-yl]-4-methylbenzamide] | statistically nonsignificant inhibition of neutrophilia
14 | CCN(CC)CCCNc1nc(-c2cc(C(=O)NCCF)ccc2C)c2ccc(=O)n(-c3c(F)cccc3F)c2n1 [Example 133, 3-[2-{[3-(diethylamino)propyl]amino}-8-(2,6-difluorophenyl)-7-oxo-7,8-dihydropyrido[2,3-d]pyrimidin-4-yl]-N-(2-fluoroethyl)-4-methylbenzamidetrifluoroacetate] | statistically significant inhibition of neutrophilia
15 | CCN(CC)CCCNc1nc(-c2cc(C(=O)NC3CCC3)ccc2C)c2ccc(=O)n(-c3c(F)cccc3F)c2n1 [Example 137, N-cyclobutyl-3-[2-{[3-(diethylamino)propyl]amino}-8-(2,6-difluorophenyl)-7-oxo-7,8-dihydropyrido[2,3-d]pyrimidin-4-yl]-4-methylbenzamide trifluoroacetate] | statistically significant inhibition of neutrophilia
16 | Cc1ccc(C(=O)NC2CC2)cc1-c1nc(NCCN(C)C)nc2c1ccc(=O)n2-c1c(F)cccc1F [Example 25] | statistically nonsignificant inhibition of neutrophilia
17 | Cc1ccc(C(=O)Nc2nccs2)cc1-c1nc(NCCCNC(C)(C)C)nc2c1ccc(=O)n2-c1c(F)cccc1F [Example 102, 3-[8-(2,6-difluorophenyl)-2-({3-[(1,1-dimethylethyl)amino]propyl}amino)-7-oxo-7,8-dihydropyrido[2,3-d]pyrimidin-4-yl]-4-methyl-N-1,3-thiazol-2-ylbenzamide] | statistically nonsignificant inhibition of neutrophilia
18 | CNCCNc1nc(-c2cc(C(=O)NCC3CC3)ccc2C)c2ccc(=O)n(-c3c(F)cccc3F)c2n1 [Example 4] | statistically significant inhibition of neutrophilia
19 | Cc1ccc(C(=O)NCC(C)C)cc1-c1nc(N2CCC(N3CCC(C)CC3)CC2)nc2c1ccc(=O)n2-c1c(F)cccc1F [Example 168, 3-[8-(2,6-difluorophenyl)-2-(4-methyl-1,4′-bipiperidin-1′-yl)-7-oxo-7,8-dihydropyrido[2,3-d]pyrimidin-4-yl]-4-methyl-N-(2-methylpropyl)benzamide] | inactive
20 | CNCCNc1nc(-c2cc(C(=O)NC3CCCC3)ccc2C)c2ccc(=O)n(-c3c(F)cccc3F)c2n1 [Example 58, N-cyclopentyl-3-(8-(2,6-difluorophenyl)-2-{[2-(methylamino)ethyl]amino}-7-oxo-7,8-dihydropyrido[2,3-d]pyrimidin-4-yl)-4-methylbenzamide] | statistically significant inhibition of neutrophilia
21 | Cc1ccc(C(=O)NC2CCCC2)cc1-c1nc(N2CCC(N)CC2)nc2c1ccc(=O)n2-c1c(F)cccc1F [Example 70, 3-[2-(4-amino-1-piperidinyl)-8-(2,6-difluorophenyl)-7-oxo-7,8-dihydropyrido[2,3-d]pyrimidin-4-yl]-N-cyclopentyl-4-methylbenzamide] | statistically nonsignificant inhibition of neutrophilia
